# According to patent US8148391B2 (Cephalon, Inc., priority 2006, dated 2012):
# Like-named read-outs stand apart in the source and are kept apart here.
# Assays:
# [1] = target: T1, baculovirus-expressed ALK (Homo sapiens, UniProt Q9UM73); experiment: ALK Kinase Assay (ELISA-type, time-resolved fluorescence); assay type: biochemical
# T1 construct: host or cells: baculovirus expression system
# Procedure, shortened: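 Wells were coated with phospholipase C-γ at 10 μg/mL in Tris-buffered saline. Adding 30 ng/ml enzyme started the reaction, which ran at 37° C for 15 minutes before Eu-N1 PT66 antibody detection. Percent inhibition versus log10 concentration gave IC50 by variable-slope fit.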
# [2] = target: T2, c-Met (cytoplasmic domain) (Homo sapiens, UniProt P08581); experiment: c-Met Kinase Assay (same methods as for ALK, with modifications); assay type: biochemical
# T2 construct: 10 ng/mL c-Met (cytoplasmic domain, Invitrogen Corporation #PV3143); purchased Invitrogen Corporation PV3143
# T2 sequence (P08581 956-1390 limits assumed): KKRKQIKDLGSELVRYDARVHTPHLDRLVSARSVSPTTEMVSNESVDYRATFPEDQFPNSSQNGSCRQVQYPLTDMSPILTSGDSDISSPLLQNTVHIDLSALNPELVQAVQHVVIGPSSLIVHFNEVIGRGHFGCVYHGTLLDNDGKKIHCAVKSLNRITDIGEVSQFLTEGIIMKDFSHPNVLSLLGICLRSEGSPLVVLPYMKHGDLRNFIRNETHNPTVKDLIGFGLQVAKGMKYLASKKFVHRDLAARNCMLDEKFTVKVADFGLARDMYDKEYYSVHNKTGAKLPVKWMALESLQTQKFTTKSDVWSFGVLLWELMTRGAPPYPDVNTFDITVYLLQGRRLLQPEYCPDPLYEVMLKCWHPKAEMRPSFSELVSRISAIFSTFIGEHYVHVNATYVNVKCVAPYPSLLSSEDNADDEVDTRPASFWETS
# Procedure, shortened: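 IC50 values were fitted by variable-slope sigmoidal regression of percent inhibition against log compound concentration. Phosphorylation was read with Eu-N1 PT66 antibody after a 15 min, 37 °C reaction. The reaction was initiated with 10 ng/mL c-Met cytoplasmic domain on wells coated with 10 μg/mL PLC-γ in TBS.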
# [3] = 1 μM ATP (Km level), read-out: ALK Activity (ALK Kinase Inhibition, IC50)
# [4] = 1 μM ATP (Km level), read-out: cMet Activity (c-Met Kinase Inhibition, IC50)
# [5] = ALK kinase inhibition, 1 μM ATP, read-out: ALK Activity
# [6] = c-Met kinase inhibition, 1 μM ATP, read-out: cMet Activity
# [7] = ALK kinase inhibition, 1 μM ATP (Km level), read-out: ALK Activity
# [8] = c-Met kinase inhibition, 1 μM ATP (Km level), read-out: cMet Activity
# [9] = 1 μM ATP (Km level), 30 ng/ml ALK, 37° C., 15 minutes, read-out: ALK Activity (ALK kinase inhibition, IC50 class)
# [10] = 1 μM ATP (Km level), 10 ng/mL c-Met, read-out: cMet Activity (c-Met kinase inhibition, IC50 class)
# T1 sequence (Q9UM73 19-1620): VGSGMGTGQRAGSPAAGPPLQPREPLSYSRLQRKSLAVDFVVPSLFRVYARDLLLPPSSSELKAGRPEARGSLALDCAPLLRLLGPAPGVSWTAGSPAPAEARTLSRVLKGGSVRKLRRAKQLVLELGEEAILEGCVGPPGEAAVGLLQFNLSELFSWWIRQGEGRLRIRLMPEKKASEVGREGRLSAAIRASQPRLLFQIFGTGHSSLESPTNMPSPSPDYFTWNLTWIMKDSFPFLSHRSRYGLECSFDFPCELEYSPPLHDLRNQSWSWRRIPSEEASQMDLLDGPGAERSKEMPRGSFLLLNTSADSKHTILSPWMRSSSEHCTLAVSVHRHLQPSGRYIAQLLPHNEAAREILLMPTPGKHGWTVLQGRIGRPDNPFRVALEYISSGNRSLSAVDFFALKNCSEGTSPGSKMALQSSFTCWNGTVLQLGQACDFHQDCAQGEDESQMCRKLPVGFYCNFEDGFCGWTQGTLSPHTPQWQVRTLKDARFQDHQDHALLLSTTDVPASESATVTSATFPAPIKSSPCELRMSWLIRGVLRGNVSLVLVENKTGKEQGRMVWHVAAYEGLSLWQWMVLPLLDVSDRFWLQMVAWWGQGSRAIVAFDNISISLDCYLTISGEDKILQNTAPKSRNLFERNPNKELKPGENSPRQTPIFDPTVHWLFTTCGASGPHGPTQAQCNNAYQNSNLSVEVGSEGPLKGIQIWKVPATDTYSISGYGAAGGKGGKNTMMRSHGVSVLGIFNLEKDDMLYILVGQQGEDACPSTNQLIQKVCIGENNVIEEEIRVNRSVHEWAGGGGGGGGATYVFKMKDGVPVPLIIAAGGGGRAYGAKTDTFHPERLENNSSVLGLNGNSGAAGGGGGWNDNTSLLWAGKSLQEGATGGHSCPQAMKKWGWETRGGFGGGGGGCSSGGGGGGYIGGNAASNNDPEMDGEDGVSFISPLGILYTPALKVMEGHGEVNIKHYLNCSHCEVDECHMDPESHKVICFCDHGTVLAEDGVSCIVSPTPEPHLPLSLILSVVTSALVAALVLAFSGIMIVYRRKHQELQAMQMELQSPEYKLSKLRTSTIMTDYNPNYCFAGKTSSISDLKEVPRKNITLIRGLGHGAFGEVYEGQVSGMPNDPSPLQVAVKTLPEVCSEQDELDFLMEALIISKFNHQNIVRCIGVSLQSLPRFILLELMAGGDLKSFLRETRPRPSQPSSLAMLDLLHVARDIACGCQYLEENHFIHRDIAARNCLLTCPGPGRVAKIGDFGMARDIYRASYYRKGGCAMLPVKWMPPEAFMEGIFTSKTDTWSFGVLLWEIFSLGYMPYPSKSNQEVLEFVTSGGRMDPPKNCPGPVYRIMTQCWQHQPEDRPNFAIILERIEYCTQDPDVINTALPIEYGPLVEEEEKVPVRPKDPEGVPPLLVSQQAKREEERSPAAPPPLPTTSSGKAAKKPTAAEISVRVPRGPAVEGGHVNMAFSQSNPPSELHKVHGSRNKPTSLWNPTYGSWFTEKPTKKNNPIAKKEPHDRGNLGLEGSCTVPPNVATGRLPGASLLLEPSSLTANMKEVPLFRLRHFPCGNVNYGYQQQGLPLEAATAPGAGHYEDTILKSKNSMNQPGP
compound,measurement,setting,value
"CS(=O)(=O)N[C@@H]1CCCC[C@H]1Nc1nc(Nc2ccc3c(c2)CNCCS3)ncc1Cl [Example 519, N-{(1R,2R)-2-[5-Chloro-2-(6,7,8,9-tetrahydro-5-thia-8-aza-benzocyclohepten-2-ylamino)-pyrimidin-4-ylamino]-cyclohexyl}-methanesulfonamide]",IC50,[1]; [3],< 100 nM
same,IC50,[2]; [4],1000 to 10000 nM
"COc1cc(N2CCOCC2)ccc1Nc1nc(Nc2ccc3c(c2)N(C(C)=O)CCCC3(C)C)ncc1Cl [Example 1598, 1-{8-[5-Chloro-4-(2-methoxy-4-morpholin-4-yl-phenylamino)-pyrimidin-2-ylamino]-5,5-dimethyl-2,3,4,5-tetrahydro-benzo[b]azepin-1-yl}-ethanone]",IC50,[1]; [5],100 to 1000 nM
same,IC50,[2]; [6],1000 to 10000 nM
"CNC(=O)c1cc(F)ccc1Nc1nc(Nc2ccc3c(c2)CN(C)C(=O)CC3)ncc1Cl [Example 1809, 2-[5-Chloro-2-(2-methyl-3-oxo-2,3,4,5-tetrahydro-1H-benzo[c]azepin-8-ylamino)-pyrimidin-4-ylamino]-5-fluoro-N-methyl-benzamide]",IC50,[1]; [5],1000 to 10000 nM
same,IC50,[2]; [6],1000 to 10000 nM
"CCN1CCc2cc(Nc3ncc(Cl)c(Nc4ccccc4C(=O)NC)n3)c(OC)c(N)c2CC1 [Example 50, 2-[2-(9-Amino-3-ethyl-8-methoxy-2,3,4,5-tetrahydro-1H-benzo[d]azepin-7-ylamino)-5-chloro-pyrimidin-4-ylamino]-N-methyl-benzamide]",IC50,[1]; [7],< 100 nM
same,IC50,[2]; [8],> 10000 nM
"CNC(=O)c1cccc(Cl)c1Nc1nc(Nc2ccc3c(c2)-c2nccn2CCC3)ncc1Cl [Example 1845, 2-[5-Chloro-2-(5,6-dihydro-4H-1,3a-diaza-benzo[e]azulen-9-ylamino)-pyrimidin-4-ylamino]-3-chloro-N-methyl-benzamide]",IC50,[1]; [5],100 to 1000 nM
same,IC50,[2]; [6],100 to 1000 nM
"CNC(=O)c1sc(C)c(C)c1Nc1nc(Nc2ccc3c(c2)CCOC(=O)N3C)ncc1Cl [Example 1772, 5-Methyl-3-[5-chloro-2-(5-methyl-6-oxo-5,6,8,9-tetrahydro-7-oxa-5-aza-benzocyclohepten-2-ylamino)-pyrimidin-4-ylamino]-4-methyl-thiophene-2-carboxylic acid methylamide]",IC50,[1]; [5],1000 to 10000 nM
same,IC50,[2]; [6],< 100 nM
"CCNC(=O)c1ccccc1Nc1nc(Nc2ccc3c(c2)CCN(CCOC)CC3)ncc1Cl [Example 343, 2-{5-Chloro-2-[3-(2-methoxy-ethyl)-2,3,4,5-tetrahydro-1H-benzo[d]azepin-7-ylamino]-pyrimidin-4-ylamino}-N-ethyl-benzamide]",IC50,[1]; [7],< 100 nM
same,IC50,[2]; [8],< 100 nM
"(1S,2S,3R,4R)-3-[5-Chloro-2-[4-cyclopropylmethyl-7-methoxy-2,3,4,5-tetrahydro-1H-benzo[e][1,4]diazepin-8-ylamino)-pyrimidin-4-ylamino]-bicyclo(2.2.1)hept-5-ene-2-carboxylic acid amide [Example 747]",IC50,[1]; [3],< 100 nM
same,IC50,[2]; [4],> 10000 nM
"COc1cc2c(cc1Nc1ncc(Cl)c(Nc3ccc(N4CCOCC4)cc3OC)n1)N(C)CCN(S(C)(=O)=O)C2 [Example 494, 5-Chloro-N*2*-(4-methanesulfonyl-7-methoxy-1-methyl-2,3,4,5-tetrahydro-1H-benzo[e][1,4]diazepin-8-yl)-N*4*-(2-methoxy-4-morpholin-4-yl-phenyl)-pyrimidine-2,4-diamine]",IC50,[1]; [7],< 100 nM
same,IC50,[2]; [8],> 10000 nM
"COCCN1CCc2ccc(Nc3ncc(Cl)c(Nc4c(F)cccc4OCC4CCOC4)n3)cc2CC1 (stereo not drawn) [Example 1275, 5-Chloro-N(4)-[2-fluoro-6-(tetrahydro-furan-3-ylmethoxy)-phenyl]-N(2)-[3-(2-methoxy-ethyl)-2,3,4,5-tetrahydro-1H-3-benzazepin-7-yl]-pyrimidine-2,4-diamine]",IC50,[1]; [9],1000 to 10000 nM
same,IC50,[2]; [10],1000 to 10000 nM
"CNC(=O)c1cc(N(C)C)ccc1Nc1nc(Nc2cc3c(cc2OC)CCN(CC(=O)N(C)C)CC3)ncc1Cl [Example 1185, 2-[5-Chloro-2-(3-dimethylcarbamoylmethyl-8-methoxy-2,3,4,5-tetrahydro-1H-benzo[d]azepin-7-ylamino)-pyrimidin-4-ylamino]-5-dimethylamino-N-methyl-benzamide]",IC50,[1]; [9],< 100 nM
same,IC50,[2]; [10],> 10000 nM
"CNC(=O)c1cnn(C)c1Nc1nc(Nc2ccc3c(c2)CCOC(=O)N3C)ncc1Cl [Example 1776, 5-[5-Chloro-2-(5-methyl-6-oxo-5,6,8,9-tetrahydro-7-oxa-5-aza-benzocyclohepten-2-ylamino)-pyrimidin-4-ylamino]-1-methyl-1H-pyrazole-4-carboxylic acid methylamide]",IC50,[1]; [5],1000 to 10000 nM
same,IC50,[2]; [6],100 to 1000 nM
"CCN1CCc2ccc(Nc3ncc(Cl)c(Nc4ccccc4S(=O)(=O)NC)n3)cc2CC1 [Example 32, 2-[5-Chloro-2-(3-ethyl-2,3,4,5-tetrahydro-1H-benzo[d]azepin-7-ylamino)-pyrimidin-4-ylamino]-N-methyl-benzenesulfonamide]",IC50,[1]; [7],< 100 nM
same,IC50,[2]; [8],< 100 nM
"Cc1noc(-c2cccc(F)c2Nc2nc(Nc3ccc4c(c3)CCOC(=O)N4C)ncc2Cl)n1 [Example 1785, 2-{5-Chloro-4-[2-fluoro-6-(3-methyl-[1,2,4]oxadiazol-5-yl)-phenylamino]-pyrimidin-2-ylamino}-5-methyl-8,9-dihydro-5H-7-oxa-5-aza-benzocyclohepten-6-one]",IC50,[1]; [5],1000 to 10000 nM
same,IC50,[2]; [6],100 to 1000 nM
"CNC(=O)c1ccccc1Nc1nc(Nc2cc3c(cc2OC)CCN(CC(=O)N(C)C)CC3)ncc1Cl [Example 259, 2-[5-Chloro-2-(3-dimethylcarbamoylmethyl-8-methoxy-2,3,4,5-tetrahydro-1H-benzo[d]azepin-7-ylamino)-pyrimidin-4-ylamino]-N-methyl-benzamide]",IC50,[1]; [7],< 100 nM
same,IC50,[2]; [8],100 to 1000 nM
"COc1cc2c(cc1Nc1ncc(Cl)c(Nc3ccc(N4CCOCC4)cc3OC)n1)CCN(CC(C)(F)F)CC2 [Example 780, 5-Chloro-N*2*-[3-(2,2-difluoro-propyl)-8-methoxy-2,3,4,5-tetrahydro-1H-benzo[d]azepin-7-yl]-N*4*-(2-methoxy-4-morpholin-4-yl-phenyl)-pyrimidine-2,4-diamine]",IC50,[1]; [3],100 to 1000 nM
same,IC50,[2]; [4],> 10000 nM
"CCN1C(=O)C(NC(=O)C(F)(F)F)CCc2c1ccc(Nc1ncc(Cl)c(Nc3ccccc3S(=O)(=O)C(C)C)n1)c2OC (stereo not drawn) [Example 1333, N-(7-{5-Chloro-4-[2-(propane-2-sulfonyl)-phenylamino]-pyrimidin-2-ylamino}-1-ethyl-6-methoxy-2-oxo-2,3,4,5-tetrahydro-1H-benzo[b]azepin-3-yl)-2,2,2-trifluoro-acetamide]",IC50,[1]; [9],< 100 nM
same,IC50,[2]; [10],> 10000 nM
"CCN1C(=O)CCCc2c1ccc(Nc1ncc(Cl)c(Nc3ccccc3-c3nccn3C)n1)c2OC [Example 983, 7-{5-Chloro-4-[2-(1-methyl-1H-imidazol-2-yl)-phenylamino]-pyrimidin-2-ylamino}-1-ethyl-6-methoxy-1,3,4,5-tetrahydro-benzo[b]azepin-2-one]",IC50,[1]; [3],< 100 nM
same,IC50,[2]; [4],> 10000 nM
"COCCN1CCc2ccc(Nc3ncc(Cl)c(Nc4ccccc4OCC(=O)O)n3)cc2CC1 [Example 1242, (2-{5-Chloro-2-[3-(2-methoxy-ethyl)-2,3,4,5-tetrahydro-1H-3-benzazepin-7-ylamino]-pyrimidin-4-ylamino}-phenoxy)-acetic acid]",IC50,[1]; [9],< 100 nM
same,IC50,[2]; [10],100 to 1000 nM
"CS(=O)(=O)N[C@@H]1CCCC[C@H]1Nc1nc(Nc2cc(F)cc3c2OCCNC3=O)ncc1Cl [Example 1683, N-{(1R,2R)-2-[5-Chloro-2-(7-fluoro-5-oxo-2,3,4,5-tetrahydro-benzo[f][1,4]oxazepin-9-ylamino)-pyrimidin-4-ylamino]-cyclohexyl}-methanesulfonamide]",IC50,[1]; [5],100 to 1000 nM
same,IC50,[2]; [6],> 10000 nM
"CCN1C2CCC1c1c(ccc(Nc3ncc(Cl)c(Nc4ccccc4C(=O)NC)n3)c1Cl)C2 (stereo not drawn) [Example 73, 2-[5-Chloro-2-(3-chloro-12-ethyl-12-aza-tricyclo[7.2.1.0*2,7*]dodeca-2(7),3,5-trien-4-ylamino)-pyrimidin-4-ylamino]-N-methyl-benzamide]",IC50,[1]; [7],< 100 nM
same,IC50,[2]; [8],100 to 1000 nM
"CCN1C(=O)[C@@H](NC(=O)C2CC2)CCc2c1ccc(Nc1ncc(Cl)c(N[C@H]3[C@@H](C(N)=O)[C@@H]4C=C[C@H]3C4)n1)c2OC (single isomer, unassigned) [Example 1358]",IC50,[1]; [9],< 100 nM
same,IC50,[2]; [10],> 10000 nM
"CCNc1nnc(-c2ccccc2Nc2nc(Nc3ccc4c(c3)CCOC(=O)N4C)ncc2Cl)o1 [Example 1783, 2-{5-Chloro-4-[2-(5-ethylamino-[1,3,4]oxadiazol-2-yl)-phenylamino]-pyrimidin-2-ylamino}-5-methyl-8,9-dihydro-5H-7-oxa-5-aza-benzocyclohepten-6-one]",IC50,[1]; [5],1000 to 10000 nM
same,IC50,[2]; [6],100 to 1000 nM
"CN(C)CCN1CCCC(C)(C)c2ccc(Nc3ncc(Cl)c(N[C@H]4[C@@H](C(N)=O)[C@@H]5C=C[C@H]4C5)n3)cc21 [Example 1640, (1S,2S,3R,4R)-3-{5-Chloro-2-[1-(2-dimethylamino-ethyl)-5,5-dimethyl-2,3,4,5-tetrahydro-1H-benzo[b]azepin-8-ylamino]-pyrimidin-4-ylamino}-bicyclo[2.2.1]hept-5-ene-2-carboxylic acid amide]",IC50,[1]; [5],< 100 nM
same,IC50,[2]; [6],< 100 nM
